Test results reported in US20240011094A1, “METHODS FOR DIAGNOSIS AND TREATING POLYCYSTIC OVARY SYNDROME (PCOS)” (INSTITUT NATIONAL DE LA SANTÉ ET DE LA RECHERCHE MÉDICALE, priority 2020, published 2024).
pIC50, pKd: −log10 of the molar value. No end group written: not given here.

Experiments:
[1] = system: PAMH F3 female offspring (PCOS-like mice); assay: SAM treatment of PAMH F3 female mice: estrous cyclicity, LH, T, body composition, pancreatic islets; type: in vivo, mouse
Method: Control F1 and PAMH F1-F3 female offspring were weaned at post-natal day P21 and checked for vaginal opening (VO) and time of first estrus. Anogenital distance (AGD) and body mass (grams, g) were measured at different ages during post-natal development (P30, 35, 40, 50 and 60). At VO and in adulthood (P60), vaginal smears were performed daily for 16 consecutive days (4-cycles) for analysis of age of first estrus and estrous cyclicity. Vaginal cytology was analyzed under an inverted microscope to identify the specific stage of the estrous cycle. The reproductive competency of these animals was determined by pairing the following mice: CNTR F1 females mated with CNTR F1 males, CNTR F1 males mated with PAMH F1-F3 females, PAMH F1-F3 females mated with PAMH F1-F3 males, for a period of 3 months. Unexperienced males and primiparous females, selected from at least three different litters, were used for the 90-days mating protocol test. Number of pups/litter (number of pups), fertility index (number of litters per females over 3 months), and time to first litter (number of days to first litter after pairing) were quantified per treatment and pairing.
LH levels were determined by a sandwich ELISA, as described previously (Steyn et al., 2013), using the mouse LH-RP reference provided by A. F. Parlow (National Hormone and Pituitary Program, Torrance, CA). Plasma T levels were analyzed using a commercial ELISA (Demeditec Diagnostics, GmnH, DEV9911) (Moore et al., 2015) according to the manufacturers' instructions.
Whole body fat, fluids, and lean tissue mass were determined by Nuclear Magnetic Resonance (MiniSpec mq 7.5, RMN Analyser, Bruker) according to the manufacturer's recommendations.
(§1) PAMH F3 female offspring (6 months-old) were cycled for 10 days before treatment, and for additional 15 days during the treatment. CNTR female offspring (6 months-old) were not treated and were cycled for 25 days. Vaginal cytology was analyzed under an inverted microscope to record the specific stage of the estrous cycle. PAMH F3 offspring were injected intraperitoneally (i.p.) daily for 15 days with 200 μL of a solution containing 0.01M phosphate buffered saline (PBS, pH 7.4) or with SAM (50 mg/Kg/day; New England Biolegends, Cat. B9003S). This concentration was chosen based on previous in vivo pharmacological studies using the same drug (Li et al., 2012). Tail-blood samples were collected for LH and T measurements at dioestrus before the beginning of the treatments, at day 10, and at the end of the treatment, at day 25.

ovaries of PAMH F3 mice = assay: RT-qPCR gene expression in ovaries of SAM-treated PAMH F3 mice; type: in vivo, mouse
Method: Ovaries tissues were harvest from control F1 and PAMH F3 female mice, frozen ovaries were homogenized using 1 ml of Trizol (ThermoFisher Scientific, Cat #15596026) with a tissue homogenizer and total RNA was isolated using RNeasy Lipid Tissue Mini Kit (Qiagen; Cat #74804) following the manufacturer's instructions. For gene expression analyses, cDNA was synthetized from 1000 ng of total RNA using the High capacity RNA-to-cDNA kit (Applied Biosystems, Cat #4387406) using the manufacturer's recommended cycling conditions. Real-time PCR was carried out on Applied Biosystems 7900HT Fast Real-Time PCR system using exon-boundary-specific TaqMan® Gene Expression Assays (Applied Biosystems) (Table S4). Data were analyzed by using the 2^−ΔΔCT method (Livak and Schmittgen, 2001) and normalized to housekeeping genes Beta-actin (ActB) levels. Values are expressed relative to control values, as appropriate, set at 1.
as §1

NgTET1 [2] = conditions: cited from earlier work
NgTET1 [3] = biological target: T1, NgTET1 (Naegleria gruberi, UniProt D2W6T1); conditions: cited from earlier work
T1 sequence (D2W6T1 1-321): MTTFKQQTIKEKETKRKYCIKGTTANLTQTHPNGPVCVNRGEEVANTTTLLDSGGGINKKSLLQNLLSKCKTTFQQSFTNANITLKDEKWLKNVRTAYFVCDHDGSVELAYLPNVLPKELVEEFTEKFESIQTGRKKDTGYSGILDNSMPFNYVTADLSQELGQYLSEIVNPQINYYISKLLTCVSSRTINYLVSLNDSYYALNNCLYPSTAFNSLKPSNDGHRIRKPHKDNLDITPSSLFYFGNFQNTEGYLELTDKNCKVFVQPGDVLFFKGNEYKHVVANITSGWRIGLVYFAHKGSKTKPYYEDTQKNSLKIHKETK

mTET1 = mTET1 (Mus musculus, UniProt Q3URK3); conditions: cited from earlier work
mTET1, sequence (Q3URK3 whole entry, the tested form may be a part): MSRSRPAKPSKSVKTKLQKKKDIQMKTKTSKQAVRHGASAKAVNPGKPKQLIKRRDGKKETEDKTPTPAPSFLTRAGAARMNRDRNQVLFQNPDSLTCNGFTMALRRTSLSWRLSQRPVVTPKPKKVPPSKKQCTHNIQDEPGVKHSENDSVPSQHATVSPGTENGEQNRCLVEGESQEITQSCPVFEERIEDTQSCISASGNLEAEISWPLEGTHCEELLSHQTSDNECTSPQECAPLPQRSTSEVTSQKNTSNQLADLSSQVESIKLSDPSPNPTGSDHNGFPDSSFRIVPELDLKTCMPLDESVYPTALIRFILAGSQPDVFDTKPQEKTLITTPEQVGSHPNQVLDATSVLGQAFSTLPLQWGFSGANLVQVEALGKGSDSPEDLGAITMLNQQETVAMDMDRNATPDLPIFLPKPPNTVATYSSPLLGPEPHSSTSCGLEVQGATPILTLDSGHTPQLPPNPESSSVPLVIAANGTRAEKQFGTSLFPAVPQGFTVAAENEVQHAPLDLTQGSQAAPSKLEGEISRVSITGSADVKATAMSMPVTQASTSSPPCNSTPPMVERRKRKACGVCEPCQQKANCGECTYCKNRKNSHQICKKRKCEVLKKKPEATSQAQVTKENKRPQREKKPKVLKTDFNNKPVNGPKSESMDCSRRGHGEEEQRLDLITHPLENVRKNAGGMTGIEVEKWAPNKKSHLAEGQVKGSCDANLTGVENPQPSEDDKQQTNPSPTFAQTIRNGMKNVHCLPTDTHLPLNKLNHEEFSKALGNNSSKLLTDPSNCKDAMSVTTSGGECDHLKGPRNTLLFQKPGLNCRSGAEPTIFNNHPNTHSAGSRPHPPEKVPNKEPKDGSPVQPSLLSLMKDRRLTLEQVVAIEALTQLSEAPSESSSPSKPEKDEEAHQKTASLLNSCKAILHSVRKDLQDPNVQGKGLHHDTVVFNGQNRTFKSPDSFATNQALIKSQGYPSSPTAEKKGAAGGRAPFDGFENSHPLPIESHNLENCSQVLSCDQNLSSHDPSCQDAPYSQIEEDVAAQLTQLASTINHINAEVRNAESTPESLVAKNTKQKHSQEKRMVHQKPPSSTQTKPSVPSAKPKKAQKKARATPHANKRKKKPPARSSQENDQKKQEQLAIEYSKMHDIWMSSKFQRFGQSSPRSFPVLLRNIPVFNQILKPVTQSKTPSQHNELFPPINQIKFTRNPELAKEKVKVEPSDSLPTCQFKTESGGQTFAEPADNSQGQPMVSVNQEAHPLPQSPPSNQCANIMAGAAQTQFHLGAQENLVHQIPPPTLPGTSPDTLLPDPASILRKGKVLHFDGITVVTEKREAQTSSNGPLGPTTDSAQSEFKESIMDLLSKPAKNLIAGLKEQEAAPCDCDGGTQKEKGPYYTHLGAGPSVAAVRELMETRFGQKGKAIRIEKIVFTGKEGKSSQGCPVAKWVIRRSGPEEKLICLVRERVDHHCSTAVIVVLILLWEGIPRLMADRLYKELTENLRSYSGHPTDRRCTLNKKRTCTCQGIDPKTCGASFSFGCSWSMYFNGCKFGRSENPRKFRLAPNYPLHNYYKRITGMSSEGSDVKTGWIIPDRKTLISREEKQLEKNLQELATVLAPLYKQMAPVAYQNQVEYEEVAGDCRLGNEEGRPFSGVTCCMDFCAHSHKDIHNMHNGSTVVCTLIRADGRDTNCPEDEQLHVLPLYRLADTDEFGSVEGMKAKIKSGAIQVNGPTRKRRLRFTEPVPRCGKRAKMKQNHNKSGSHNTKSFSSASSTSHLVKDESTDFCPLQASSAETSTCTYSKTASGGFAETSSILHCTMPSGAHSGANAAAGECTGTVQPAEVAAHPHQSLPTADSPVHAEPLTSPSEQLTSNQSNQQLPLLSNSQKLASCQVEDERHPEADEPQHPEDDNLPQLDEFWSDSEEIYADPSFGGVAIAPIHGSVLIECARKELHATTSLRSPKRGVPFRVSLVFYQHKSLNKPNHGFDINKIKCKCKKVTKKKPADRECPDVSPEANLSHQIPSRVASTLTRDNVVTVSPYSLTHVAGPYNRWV

[4] = biological target: T2, TET1 catalytic domain (TET1CD) (Homo sapiens, UniProt Q8NFU7); conditions: cited from earlier work
T2 sequence (Q8NFU7 1418-2136 limits assumed): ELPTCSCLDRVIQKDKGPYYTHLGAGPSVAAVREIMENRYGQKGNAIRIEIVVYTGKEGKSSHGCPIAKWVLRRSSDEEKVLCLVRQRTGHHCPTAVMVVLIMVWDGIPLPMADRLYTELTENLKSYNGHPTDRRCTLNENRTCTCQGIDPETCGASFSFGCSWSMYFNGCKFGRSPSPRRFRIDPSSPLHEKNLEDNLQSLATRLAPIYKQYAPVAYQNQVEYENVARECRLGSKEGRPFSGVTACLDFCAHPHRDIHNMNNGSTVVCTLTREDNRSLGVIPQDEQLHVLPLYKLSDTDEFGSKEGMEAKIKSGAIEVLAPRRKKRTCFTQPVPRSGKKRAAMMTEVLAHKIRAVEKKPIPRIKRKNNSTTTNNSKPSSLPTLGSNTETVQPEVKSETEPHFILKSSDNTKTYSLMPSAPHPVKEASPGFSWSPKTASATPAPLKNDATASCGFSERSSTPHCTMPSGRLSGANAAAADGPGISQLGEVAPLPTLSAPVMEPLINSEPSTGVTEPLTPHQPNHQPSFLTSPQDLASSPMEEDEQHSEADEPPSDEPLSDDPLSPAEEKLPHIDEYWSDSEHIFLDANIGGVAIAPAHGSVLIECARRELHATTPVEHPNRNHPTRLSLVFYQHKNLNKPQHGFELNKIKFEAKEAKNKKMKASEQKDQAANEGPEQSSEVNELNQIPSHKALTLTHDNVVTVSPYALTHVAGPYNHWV

[5] = PAMH F3 females, SAM 50 mg/kg/day i.p. for 15 days
[6] = PAMH F3 females, dioestrus, day 25, SAM 50 mg/kg/day i.p. for 15 days

## C[S@@+](CC[C@H](N)C(=O)[O-])C[C@H]1O[C@@H](n2cnc3c(N)ncnc32)[C@H](O)[C@@H]1O (stereo in doubt) [SAM, S-Adenosyl methionine]
[1]; PAMH F3 females, 6 months-old, SAM 50 mg/kg/day i.p. for 15 days
  percentage of completed estrous cycles: 75%
[1]; [5]
  body mass composition, % of fat mass: normalized
  body mass composition, % of lean mass: normalized
  size of the islet of Langerhans: normalized
  time spent in each estrous cycle stage (ovulation): restored normal ovulation
[1]; [6]
  LH concentrations: normalized
  T concentrations: normalized
[1]; PAMH F3 mice, postnatal SAM treatment
  major PCOS-like neuroendocrine, reproductive and metabolic traits: rescue
Ovaries of PAMH F3 mice
  Hdc ovarian gene expression: rescue
  NF-κB mRNA in ovaries: normalized
  Ptgs2 mRNA in ovaries: normalized
  Sorbs2 expression in ovaries: remained unaltered
  Uhrf1 expression in ovaries: restored
Ovaries of PAMH F3 mice; compared with controls
  Tet1 transcript levels in ovarian tissues: unaltered

## O=C(O)CCC(=O)C(=O)O [Molecule 3, 2-oxoglutraric acid]
NgTET1 [2]
  pIC50: 3.60

## O=C(O)CNC(=O)C(=O)O [Molecule 30, N-oxalylglycine]
NgTET1 [2]
  pIC50: 4.31

## O=C(O)/C=C/C(=O)N(O)CCCCCCCCNC(=S)Nc1ccc(-c2c3ccc(=O)cc-3oc3cc(O)ccc23)c(C(=O)O)c1 [Molecule 33]
NgTET1 [3]
  pKd: 6.60

## O=C(O)c1ccnc(C(=O)O)c1 [Molecule 35, 2,4-pyridinedicarboxylic acid]
NgTET1 [2]
  pIC50: 4.57

## Fumarate [Molecule 32]
mTET1
  pIC50: 3.41

## cyclic peptide TET1 inhibitor, SEQ ID 5: (Ac)YYRVKTYYQITYVYLSC [Molecule 38]
NgTET1 [2]
  pIC50: 5.84

## cyclic peptide TET1 inhibitor, SEQ ID No 3: (Ac)YLIYAYYTWWEHSC (Ac-YLIYAYYTWWEHSC; not fully specified (bridges)) [Molecule 36]
[4]
  selectivity, inhibition of TET1CD over TET2CD: tenfold
NgTET1 [2]
  pIC50: 5.83

## cyclic peptide TET1 inhibitor, SEQ ID No 4: (Ac)YWYLPSYRVPWFC [Molecule 37]
NgTET1 [2]
  pIC50: 5.95
